{"source": "paper PMC8264259", "about": "“A Novel Ruthenium(II) Complex With Lapachol Induces G2/M Phase Arrest Through Aurora-B Kinase Down-Regulation and ROS-Mediated Apoptosis in Human Prostate Adenocarcinoma Cells” (Frontiers in Oncology, 2021)", "key": {"[1]": {"system": "DU-145 cells", "experiment": "Gene expression analysis by qPCR array (Human Cancer Drug Targets)", "assay_type": "cell-based", "conditions": "DU-145, 1.0 µM, 12 h, mRNA, ΔΔCt vs vehicle", "description": "Briefly, DU-145 cells were seeded (1.0 × 10^6 cells/well) into six-well plates and maintained to attach at 37°C in 5% CO2. After 24 h, the cells were treated with 1.0 μM of the complex (2). DMSO (0.1% v/v) was used as the vehicle control. After 12 h of incubation, total RNA was isolated from the cells using the RNeasy® Mini kit (Qiagen, Germany) according to the manufacturer’s instructions. RNA was quantified by NanoDrop spectrophotometer (ND-2000; Thermo Fischer Scientific). The Agilent 2100 Bioanalyzer and Agilent RNA 6000 Nanochip kits were used to assess the total RNA quality as per manual instruction (Agilent, USA). The Agilent 2100 Expert software (Version B.02.07.SI532) was used with the Eukaryote Total RNA Nano assay on the Agilent 2100 bioanalyzer. No significant differences in RIN values were observed across the samples. Complementary DNA strands were synthesized using the RT^2 First Strand kit (Qiagen, Germany), following the manufacturer’s instructions. Gene expression profiling was performed using the RT^2 Profiler™ PCR Array Human Cancer Drug Targets (PAHS 507Z, Qiagen) by qPCR. The reactions were conducted in the Applied Biosystems 7500 PCR System (Applied Biosystems, USA) thermocycler. The plate was heated to 95°C for 10 min, followed by 40 cycles of 95°C for 15 s and 60°C for 1 min, followed by the dissociation curve. The expression profile of 84 key drug targets genes was analyzed. Fold changes amplification for targeted genes was normalized to the housekeeping genes GAPDH and RPLP0 by the delta–delta cycle threshold method (ΔΔCt), and the cells treated with vehicle control (0.1% of DMSO v/v) was used as calibrator. The threshold cycle values of control wells were all within the ranges recommended by the PCR array user manual. Three independent biological replicates were performed. All experiments were performed in DNase/RNase free conditions. Genes were considered differentially regulated if the difference was ≥1.8-fold, which means that the gene expression in the compound-treated cells was at 1.8-fold that in the negative control-treated cells. Differences were considered significant at p ≤ 0.05. Statistical analysis of two groups was performed automatically according to the GeneGlobe Data Analysis Center (Qiagen, USA; https://geneglobe.qiagen.com/us/analyze)."}, "[2]": {"system": "pBR322 plasmid DNA", "experiment": "DNA interactions assay with pBR322 plasmid (agarose gel electrophoresis)", "assay_type": "biochemical", "conditions": "1.0 μM, 37°C, 18 h", "description": "Plasmid pBR322 (38 µM, Sigma-Aldrich) was mixed with different concentrations (0.125–1.0 µM) of both complexes and incubated at 37°C for 18 h. Then, the loading buffer was added and the samples were analyzed by agarose gel electrophoresis for 90 min in 1% agarose gel using a Tris-acetate-EDTA (TAE) buffer (0.45 M Tris-HCl, 0.45 M acetic acid, 10 mM EDTA, pH 7.4), and ethidium bromide was employed for staining. Bands were visualized with a ChemiDoc MP imager (BioRad, USA)."}, "[3]": {"system": "DU-145 cells", "experiment": "Cellular ROS/Superoxide detection", "assay_type": "cell-based, human", "description": "Total intracellular ROS generation was measured using 2′,7′-dichlorodihydrofluorescein diacetate (H2DCFDA, Sigma-Aldrich), as reported by ([36]). Briefly, DU-145 cells were seeded (1.5 × 10^4 cells/well) into black 96-well plates and maintained to attach at 37°C in 5% CO2. […] After that, cells were labeled with H2DCFDA solution at 5 μM in N,N-dimethylformamide (Sigma-Aldrich). After that, fluorescence intensity was measured in a Synergy H1 Fluorescence Spectrophotometer (BioTek®), at the excitation and emission wavelengths of 495 and 527 nm, respectively. Thereafter, ROS/Superoxide levels were measured using Cellular ROS/Superoxide Detection Assay Kit (Abcam®). Cells were seeded (1.5 × 10^4 cells/well) into black 96-well plates and maintained to attach at 37°C in 5% CO2. After 24 h, cells were treated with complex (2) (0.25, 0.50, 1.0, and 1.5 μM) for 24 h. […] Fluorescence was measured in quadruplicates using a fluorescent microplate reader Synergy H1 (BioTek®) with standard fluorescein (Ex = 488 nm, Em = 520 nm) and rhodamine (Ex = 550 nm, Em = 610 nm) filter sets for ROS and superoxide determination, respectively. […] Cells were labeled as described above, and the ROS levels were measured. […] After 24 h of treatment, the cell viability was determined by Alamar blue® assay as described above."}, "[4]": {"system": "DU-145 cells", "experiment": "Annexin-V/PI staining assay (flow cytometry)", "assay_type": "cell-based, human", "conditions": "for population of apoptotic cells: 24 h, control group 5.9%", "description": "The measurement of cell death was performed by the guidelines of ([35]). Detection of apoptotic/necrotic cells was determined by flow cytometry using the Alexa Fluor® 488 Annexin V/PI (Thermo Fischer Scientific), and the analyses were performed according to the manufacturer’s instructions. […] DMSO (0.1% v/v) was used as the vehicle control. Following 24 h of incubation, the cells were collected with Accutase® (Gibco-Invitrogen®), washed with PBS and resuspended in 200 μl of cold annexin-binding buffer. Next, 10 μl of Alexa Fluor® was added to Annexin V (50 μl/ml) staining buffer, and the mixture was incubated in the dark at 4°C for 15 min. Previously, the analyses, 100 μl of PI (2 μg/ml) was added, and then, the fluorescence was measured by flow cytometry in a FACSCanto flow cytometer (BD Biosciences, USA) using the Diva software. Ten thousand events were evaluated per experiment, and cellular debris was omitted from the analysis."}}, "data": [{"smiles": "CC(C)=CCC1=C([O-])C(=O)c2ccccc2C1=O.F[P-](F)(F)(F)(F)F.[Ru+2].c1ccc(P(CP(c2ccccc2)c2ccccc2)c2ccccc2)cc1.c1cnc2c(c1)ccc1cccnc12", "note": "[complex (2), [Ru(Lap)(dppm)(phen)]PF6]", "values": [{"measurement": "Fold change, AKT1", "setting": "[1]", "value": "−2.6", "unit": "fold"}, {"measurement": "Fold change, AKT2", "setting": "[1]", "value": "−2.6", "unit": "fold"}, {"measurement": "Fold change, AURKA", "setting": "[1]", "value": -5.3, "unit": "fold"}, {"measurement": "Fold change, AURKB", "setting": "[1]", "value": -11.1, "unit": "fold"}, {"measurement": "Fold change, AURKC", "setting": "[1]", "value": -3.0, "unit": "fold"}, {"measurement": "Fold change, BCL2", "setting": "[1]", "value": -4.1, "unit": "fold"}, {"measurement": "Fold change, BIRC5", "setting": "[1]", "value": -6.4, "unit": "fold"}, {"measurement": "Fold change, CDC25A", "setting": "[1]", "value": "−2.6", "unit": "fold"}, {"measurement": "Fold change, CDK1", "setting": "[1]", "value": -4.5, "unit": "fold"}, {"measurement": "Fold change, CDK2", "setting": "[1]", "value": "−2.7", "unit": "fold"}, {"measurement": "Fold change, CDK4", "setting": "[1]", "value": -4.6, "unit": "fold"}, {"measurement": "Fold change, CDK5", "setting": "[1]", "value": "−3.2", "unit": "fold"}, {"measurement": "Fold change, EGFR", "setting": "[1]", "value": "−4.1", "unit": "fold"}, {"measurement": "Fold change, ERBB2", "setting": "[1]", "value": "−2.4", "unit": "fold"}, {"measurement": "Fold change, GSTP1", "setting": "[1]", "value": "−2.9", "unit": "fold"}, {"measurement": "Fold change, HDAC8", "setting": "[1]", "value": "−1.8", "unit": "fold"}, {"measurement": "Fold change, IGF1R", "setting": "[1]", "value": "−2.7", "unit": "fold"}, {"measurement": "Fold change, MDM4", "setting": "[1]", "value": 2.8, "unit": "fold"}, {"measurement": "Fold change, MTOR", "setting": "[1]", "value": "−3.8", "unit": "fold"}, {"measurement": "Fold change, PARP1", "setting": "[1]", "value": "−2.7", "unit": "fold"}, {"measurement": "Fold change, PARP2", "setting": "[1]", "value": "−3.0", "unit": "fold"}, {"measurement": "Fold change, PDGFRB", "setting": "[1]", "value": "−2.0", "unit": "fold"}, {"measurement": "Fold change, PIK3CA", "setting": "[1]", "value": "−2.7", "unit": "fold"}, {"measurement": "Fold change, PTGS2", "setting": "[1]", "value": 2.1, "unit": "fold"}, {"measurement": "Fold change, TOP2A", "setting": "[1]", "value": "−2.1", "unit": "fold"}, {"measurement": "Fold change, TOP2B", "setting": "[1]", "value": "−2.8", "unit": "fold"}, {"measurement": "nuclease activity on pBR322 (supercoiled to linear)", "setting": "[2]", "value": "single-strand DNA cleavage"}, {"measurement": "total ROS levels", "setting": "[3]; DU-145, 24 h exposure", "value": "significantly higher"}, {"measurement": "intracellular ROS with ROS scavenger NAC", "setting": "[3]; DU-145, cotreatment with 5 mM NAC, 24 h", "value": "inhibited the formation of intracellular ROS"}, {"measurement": "population of apoptotic cells", "setting": "[4]; DU-145, 0.25 μM", "value": 11.8, "unit": "%"}, {"measurement": "population of apoptotic cells", "setting": "[4]; DU-145, 0.5 μM", "value": 22.7, "unit": "%"}, {"measurement": "population of apoptotic cells", "setting": "[4]; DU-145, 1.0 μM", "value": 41.4, "unit": "%"}, {"measurement": "population of apoptotic cells", "setting": "[4]; DU-145, 1.5 μM", "value": 70.2, "unit": "%"}, {"measurement": "fold lower concentration required for the same effect of cisplatin", "setting": "[4]; apoptotic DU-145 cells, vs cisplatin 25 μM", "value": 100, "unit": "fold"}]}]}
